# Data reported in US8258114B2, “Modulation of glucose-6-phosphatase translocase expression” (Isis Pharmaceuticals, Inc., priority 2004, dated 2012).
# Oligonucleotides are written 5' to 3', each unit as a sugar letter and its base; * is a phosphorothioate linkage, no mark a phosphodiester; rarer units and linkages stand in square brackets, end groups in braces. Plain capitals give the bases only. e = 2'-O-(2-methoxyethyl) (MOE); [5mC] = 5-methylcytosine; d = 2'-deoxy (DNA)
# Test system: mouse glucose-6-phosphatase translocase mRNA
# Test: Antisense inhibition of mouse glucose-6-phosphatase translocase mRNA in primary mouse hepatocytes, 50 nM (Table 5)
# Assay type: cell-based
# Conditions: 50 nM oligonucleotide, mRNA by real-time PCR, normalized with RIBOGREEN
# Procedure: Primary mouse hepatocytes were prepared from CD-1 mice purchased from Charles River Labs. Primary mouse hepatocytes were routinely cultured in Hepatocyte Attachment Media supplemented with 10% fetal bovine serum (Invitrogen Life Technologies, Carlsbad, Calif.), 250 nM dexamethasone, and 10 nM bovine insulin (Sigma-Aldrich, St. Louis, Mo.). Cells were seeded into 96-well plates (Falcon-Primaria #353872, BD Biosciences, Bedford, Mass.) at a density of approximately 4,000-6,000 cells/well for use in oligomeric compound transfection experiments.
# Quantitation of glucose 6-phosphatase translocase mRNA levels was accomplished by real-time quantitative PCR using the ABI PRISM™ 7600, 7700, or 7900 Sequence Detection System (PE-Applied Biosystems, Foster City, Calif.) according to manufacturer's instructions.
# Prior to quantitative PCR analysis, primer-probe sets specific to the target gene being measured were evaluated for their ability to be “multiplexed” with a GAPDH amplification reaction. After isolation the RNA is subjected to sequential reverse transcriptase (RT) reaction and real-time PCR, both of which are performed in the same well. RT and PCR reagents were obtained from Invitrogen Life Technologies (Carlsbad, Calif.). […] The RT reaction was carried out by incubation for 30 minutes at 48° C. Following a 10 minute incubation at 95° C. to activate the PLATINUM® Taq, 40 cycles of a two-step PCR protocol were carried out: 95° C. for 15 seconds (denaturation) followed by 60° C. for 1.5 minutes (annealing/extension).
# Gene target quantities obtained by RT, real-time PCR were normalized using either the expression level of GAPDH, a gene whose expression is constant, or by quantifying total RNA using RiboGreen™ (Molecular Probes, Inc. Eugene, Oreg.). GAPDH expression was quantified by RT, real-time PCR, by being run simultaneously with the target, multiplexing, or separately. Total RNA was quantified using RiboGreen™ RNA quantification reagent (Molecular Probes, Inc. Eugene, Oreg.).
# A series of oligomeric compounds was designed to target different regions of mouse glucose-6-phosphatase translocase, using published sequences cited in Table 1. All compounds in Table 5 are chimeric oligonucleotides (“gapmers”) 20 nucleotides in length, composed of a central “gap” region consisting of 10 2′-deoxynucleotides, which is flanked on both sides (5′ and 3′) by five-nucleotide “wings”. The wings are composed of 2′-O-(2-methoxyethyl) nucleotides, also known as 2′-MOE nucleotides. The internucleoside (backbone) linkages are phosphorothioate throughout the oligonucleotide. All cytidine residues are 5-methylcytidines. The compounds were analyzed for their effect on gene target mRNA levels by quantitative real-time PCR as described in other examples herein, using the following primer-probe set designed to hybridize to mouse glucose-6-phosphatase translocase: • forward primer: […] (SEQ ID NO: 66) • reverse primer: CCATCCCAGCCATCATGAG (SEQ ID NO: 67) and the PCR probe was: FAM-[…]-TAMRA (SEQ ID NO: 68) where FAM is the fluorescent reporter dye and TAMRA is the quencher dye. Mouse target gene quantities were normalized by quantifying total RNA using RIBOGREEN™.
# Data are from experiments in which primary mouse hepatocytes were treated with 50 nM of the antisense oligonucleotides of the present invention. A reduction in expression is expressed as percent inhibition in Table 5. If present, “N.D.” indicates “not determined”. The target regions to which these oligomeric compounds are inhibitory are herein referred to as “validated target segments.”
row,Sequence,% Inhib
1,CTGATGGCGTAGGCTGCCGA (e[5mC]*eT*eG*eA*eT*dG*dG*d[5mC]*dG*dT*dA*dG*dG*d[5mC]*dT*eG*e[5mC]*e[5mC]*eG*eA; antisense) [ISIS 148950],0%
2,CTGCTGGCCCACTCCAGTAC (e[5mC]*eT*eG*e[5mC]*eT*dG*dG*d[5mC]*d[5mC]*d[5mC]*dA*d[5mC]*dT*d[5mC]*d[5mC]*eA*eG*eT*eA*e[5mC]; antisense) [ISIS 148940],61%
3,CTTGTCCAGAGCGATCTCAT (e[5mC]*eT*eT*eG*eT*d[5mC]*d[5mC]*dA*dG*dA*dG*d[5mC]*dG*dA*dT*e[5mC]*eT*e[5mC]*eA*eT; antisense) [ISIS 148945],35%
4,CTTTCCGTGTCCTGCCAGTA (e[5mC]*eT*eT*eT*e[5mC]*d[5mC]*dG*dT*dG*dT*d[5mC]*d[5mC]*dT*dG*d[5mC]*e[5mC]*eA*eG*eT*eA; antisense) [ISIS 148987],45%
5,GAAGGGTATAGGAGACACCC (eG*eA*eA*eG*eG*dG*dT*dA*dT*dA*dG*dG*dA*dG*dA*e[5mC]*eA*e[5mC]*e[5mC]*e[5mC]; antisense) [ISIS 148997],57%
6,GACTGCTCCTGCTTGCAGCT (eG*eA*e[5mC]*eT*eG*d[5mC]*dT*d[5mC]*d[5mC]*dT*dG*d[5mC]*dT*dT*dG*e[5mC]*eA*eG*e[5mC]*eT; antisense) [ISIS 148938],50%
7,GAGCCCCAAATCGTCCTTGT (eG*eA*eG*e[5mC]*e[5mC]*d[5mC]*d[5mC]*dA*dA*dA*dT*d[5mC]*dG*dT*d[5mC]*e[5mC]*eT*eT*eG*eT; antisense) [ISIS 148947],37%
8,GAGCTACCCACAAGGGCGGA (eG*eA*eG*e[5mC]*eT*dA*d[5mC]*d[5mC]*d[5mC]*dA*d[5mC]*dA*dA*dG*dG*eG*e[5mC]*eG*eG*eA; antisense) [ISIS 148965],16%
9,GAGGTTCCACACAAGTTGGG (eG*eA*eG*eG*eT*dT*d[5mC]*d[5mC]*dA*d[5mC]*dA*d[5mC]*dA*dA*dG*eT*eT*eG*eG*eG; antisense) [ISIS 148978],34%
10,GCAGCCGCTCTCCTTTCCGT (eG*e[5mC]*eA*eG*e[5mC]*d[5mC]*dG*d[5mC]*dT*d[5mC]*dT*d[5mC]*d[5mC]*dT*dT*eT*e[5mC]*e[5mC]*eG*eT; antisense) [ISIS 148988],73%
11,GCCAGTGTGCTGCGCCAGCT (eG*e[5mC]*e[5mC]*eA*eG*dT*dG*dT*dG*d[5mC]*dT*dG*d[5mC]*dG*d[5mC]*e[5mC]*eA*eG*e[5mC]*eT; antisense) [ISIS 148957],57%
12,GCCCCAGTCTGTACAGCAAG (eG*e[5mC]*e[5mC]*e[5mC]*e[5mC]*dA*dG*dT*d[5mC]*dT*dG*dT*dA*d[5mC]*dA*eG*e[5mC]*eA*eA*eG; antisense) [ISIS 148963],55%
13,GCCGCAAATATGACAGTGCG (eG*e[5mC]*e[5mC]*eG*e[5mC]*dA*dA*dA*dT*dA*dT*dG*dA*d[5mC]*dA*eG*eT*eG*e[5mC]*eG; antisense) [ISIS 148942],17%
14,GCTCACAAACTTGCTGATGG (eG*e[5mC]*eT*e[5mC]*eA*d[5mC]*dA*dA*dA*d[5mC]*dT*dT*dG*d[5mC]*dT*eG*eA*eT*eG*eG; antisense) [ISIS 148951],57%
15,GCTGAAGGGTAAGCCAGCCA (eG*e[5mC]*eT*eG*eA*dA*dG*dG*dG*dT*dA*dA*dG*d[5mC]*d[5mC]*eA*eG*e[5mC]*e[5mC]*eA; antisense) [ISIS 148980],43%
16,GCTTTATTCGATCTATACAA (eG*e[5mC]*eT*eT*eT*dA*dT*dT*d[5mC]*dG*dA*dT*d[5mC]*dT*dA*eT*eA*e[5mC]*eA*eA; antisense) [ISIS 149009],5%
17,GGATATTTCGAAGCAAGAAG (eG*eG*eA*eT*eA*dT*dT*dT*d[5mC]*dG*dA*dA*dG*d[5mC]*dA*eA*eG*eA*eA*eG; antisense) [ISIS 148983],43%
18,GGCACTGATGTAGGAGCTAC (eG*eG*e[5mC]*eA*e[5mC]*dT*dG*dA*dT*dG*dT*dA*dG*dG*dA*eG*e[5mC]*eT*eA*e[5mC]; antisense) [ISIS 148966],54%

row,Sequence,% Inhib
1,GGCAGAAACCACAGGCCATT (eG*eG*e[5mC]*eA*eG*dA*dA*dA*d[5mC]*d[5mC]*dA*d[5mC]*dA*dG*dG*e[5mC]*e[5mC]*eA*eT*eT; antisense) [ISIS 149000],56%
2,GGCTGCTTGTGATGAGCCCC (eG*eG*e[5mC]*eT*eG*d[5mC]*dT*dT*dG*dT*dG*dA*dT*dG*dA*eG*e[5mC]*e[5mC]*e[5mC]*e[5mC]; antisense) [ISIS 148949],52%
3,GGGACCTCATTAGCCACTGG (eG*eG*eG*eA*e[5mC]*d[5mC]*dT*d[5mC]*dA*dT*dT*dA*dG*d[5mC]*d[5mC]*eA*e[5mC]*eT*eG*eG; antisense) [ISIS 148993],55%
4,GGGACTGAGGTATTGGCATC (eG*eG*eG*eA*e[5mC]*dT*dG*dA*dG*dG*dT*dA*dT*dT*dG*eG*e[5mC]*eA*eT*e[5mC]; antisense) [ISIS 149003],9%
5,GGGTACGGCAGAAACCACAG (eG*eG*eG*eT*eA*d[5mC]*dG*dG*d[5mC]*dA*dG*dA*dA*dA*d[5mC]*e[5mC]*eA*e[5mC]*eA*eG; antisense) [ISIS 149001],42%
6,GTGATGAGCCCCAAATCGTC (eG*eT*eG*eA*eT*dG*dA*dG*d[5mC]*d[5mC]*d[5mC]*d[5mC]*dA*dA*dA*eT*e[5mC]*eG*eT*e[5mC]; antisense) [ISIS 148948],52%
7,GTGGAGACACAGAAACGTAA (eG*eT*eG*eG*eA*dG*dA*d[5mC]*dA*d[5mC]*dA*dG*dA*dA*dA*e[5mC]*eG*eT*eA*eA; antisense) [ISIS 148992],51%
8,TACAGCAAGTCTTTACTCCG (eT*eA*e[5mC]*eA*eG*d[5mC]*dA*dA*dG*dT*d[5mC]*dT*dT*dT*dA*e[5mC]*eT*e[5mC]*e[5mC]*eG; antisense) [ISIS 148962],47%
9,TACTCGGAAGAGATACGTGG (eT*eA*e[5mC]*eT*e[5mC]*dG*dG*dA*dA*dG*dA*dG*dA*dT*dA*e[5mC]*eG*eT*eG*eG; antisense) [ISIS 148974],8%
10,TATAGGAGACACCCTGAATT (eT*eA*eT*eA*eG*dG*dA*dG*dA*d[5mC]*dA*d[5mC]*d[5mC]*d[5mC]*dT*eG*eA*eA*eT*eT; antisense) [ISIS 148996],−3%
11,TATTGGCATCAATTTTGCCC (eT*eA*eT*eT*eG*dG*d[5mC]*dA*dT*d[5mC]*dA*dA*dT*dT*dT*eT*eG*e[5mC]*e[5mC]*e[5mC]; antisense) [ISIS 149002],22%
12,TCACTCTCCCTTCTTGGATA (eT*e[5mC]*eA*e[5mC]*eT*d[5mC]*dT*d[5mC]*d[5mC]*d[5mC]*dT*dT*d[5mC]*dT*dT*eG*eG*eA*eT*eA; antisense) [ISIS 148984],60%
13,TCATGAGAGTGGTGGACTCC (eT*e[5mC]*eA*eT*eG*dA*dG*dA*dG*dT*dG*dG*dT*dG*dG*eA*e[5mC]*eT*e[5mC]*e[5mC]; antisense) [ISIS 149005],27%
14,TCATGCTGGTTGACAACACA (eT*e[5mC]*eA*eT*eG*d[5mC]*dT*dG*dG*dT*dT*dG*dA*d[5mC]*dA*eA*e[5mC]*eA*e[5mC]*eA; antisense) [ISIS 148955],36%
15,TCCTCTCCTCCCTTAGGGAC (eT*e[5mC]*e[5mC]*eT*e[5mC]*dT*d[5mC]*d[5mC]*dT*d[5mC]*d[5mC]*d[5mC]*dT*dT*dA*eG*eG*eG*eA*e[5mC]; antisense) [ISIS 149004],42%
16,TCGTCCTTGTCCAGAGCGAT (eT*e[5mC]*eG*eT*e[5mC]*d[5mC]*dT*dT*dG*dT*d[5mC]*d[5mC]*dA*dG*dA*eG*e[5mC]*eG*eA*eT; antisense) [ISIS 148946],70%
17,TCTCTTTAGTGCCTGGATCT (eT*e[5mC]*eT*e[5mC]*eT*dT*dT*dA*dG*dT*dG*d[5mC]*d[5mC]*dT*dG*eG*eA*eT*e[5mC]*eT; antisense) [ISIS 148937],52%
